According to ChEMBL document CHEMBL1777761, “Tryptamine derivatives as novel non-nucleosidic inhibitors against hepatitis B virus” (Bioorg Med Chem, 2011):

Legend:
Hepatitis B virus = assay: Antiviral activity against Hepatitis B virus infected in human HepG2(2.2.15) cells assessed as inhibition of viral DNA replication after 4 days by RT-PCR analysis; assay type: functional, organism-based; settings: HepG2 2.2.15, 96 h
[1] = Cytotoxicity against human HepG2(2.2.15) cells after 8 days by MTT assay; assay type: cell-based
[2] = Selectivity index, ratio of CC50 for human HepG2.2.15 cells to IC50 for Hepatitis B virus; assay type: functional

Row | SMILES | IC50 (Hepatitis B virus) | CC50 at 192 h [1] | Ratio CC50/IC50 [2]
1 | CCCN(CCC)CCc1c[nH]c2ccccc12 | > 100 µM | > 100 µM | 
2 | CC(C)CN(CCc1c[nH]c2ccccc12)CC(C)C | 12.2 µM | > 100 µM | >8.2
3 | CC(C)CCN(CCc1c[nH]c2ccccc12)CCC(C)C | 0.4 µM | 40.6 µM | 102
4 | c1ccc2c(CCN(CC3CC3)CC3CC3)c[nH]c2c1 | 6 µM | > 100 µM | >16.7
5 | c1ccc2c(CCN(CC3CCCCC3)CC3CCCCC3)c[nH]c2c1 | > 100 µM | > 33.3 µM | 
6 | c1ccc(CN(CCc2c[nH]c3ccccc23)Cc2ccccc2)cc1 | 13 µM | 12.4 µM | 0.95
7 | c1ccc(CN(CCc2c[nH]c3ccccc23)Cc2ccccn2)nc1 | > 25 µM | 5.8 µM | 
8 | c1coc(CN(CCc2c[nH]c3ccccc23)Cc2ccco2)c1 | 3.5 µM | 27.3 µM | 7.8
9 | c1csc(CN(CCc2c[nH]c3ccccc23)Cc2cccs2)c1 | 3.9 µM | > 33.3 µM | >8.5
10 | COc1cc(OC)c(OC)cc1CN(CCc1c[nH]c2ccccc12)Cc1cc(OC)c(OC)cc1OC | 1.2 µM | 21 µM | 17.2
11 | O=[N+]([O-])c1cccc(CN(CCc2c[nH]c3ccccc23)Cc2cccc([N+](=O)[O-])c2)c1 | > 100 µM | > 100 µM | 
12 | C[N+](C)([O-])CCc1c[nH]c2ccccc12 | 17.6 µM | > 100 µM | >5.7
13 | CC[N+]([O-])(CC)CCc1c[nH]c2ccccc12 | > 100 µM | > 100 µM | 
14 | CCC[N+]([O-])(CCC)CCc1c[nH]c2ccccc12 | > 100 µM | > 100 µM | 
15 | CC(C)C[N+]([O-])(CCc1c[nH]c2ccccc12)CC(C)C | > 100 µM | > 100 µM | 
16 | CC(C)CC[N+]([O-])(CCc1c[nH]c2ccccc12)CCC(C)C |  | 77.6 µM | 
17 | [O-][N+](CCc1c[nH]c2ccccc12)(CC1CC1)CC1CC1 | > 100 µM | > 100 µM | 
18 | [O-][N+](CCc1c[nH]c2ccccc12)(CC1CCCCC1)CC1CCCCC1 | > 100 µM | 23.1 µM | 

Row | SMILES | IC50 (Hepatitis B virus) | CC50 at 192 h [1] | Ratio CC50/IC50 [2]
19 | [O-][N+](CCc1c[nH]c2ccccc12)(Cc1ccccc1)Cc1ccccc1 | > 100 µM | > 100 µM | 
20 | [O-][N+](CCc1c[nH]c2ccccc12)(Cc1ccccn1)Cc1ccccn1 | > 100 µM | 56.5 µM | 
21 | [O-][N+](CCc1c[nH]c2ccccc12)(Cc1ccco1)Cc1ccco1 | 7.5 µM | > 100 µM | >13.3
22 | [O-][N+](CCc1c[nH]c2ccccc12)(Cc1cccs1)Cc1cccs1 | 9.4 µM | > 100 µM | >10.6
23 | C[N+](C)([O-])CCc1c[nH]c2ccc(O)cc12 | < 1 µM | > 25 µM | >25
24 | C[N+](C)([O-])CCc1c[nH]c2ccc(Br)cc12 | 5.4 µM | > 25 µM | >4.6
25 | C[N+](C)([O-])CCc1c[nH]c2ccc(Cl)cc12 | 8.4 µM | > 25 µM | >3
26 | CC(C)CCNCCc1c[nH]c2ccccc12 | > 25 µM | > 25 µM | 
27 | CC(C)CCN(C)CCc1c[nH]c2ccccc12 | > 25 µM | > 25 µM | 
28 | CC(C)CCN(CCc1c[nH]c2ccccc12)Cc1ccco1 | 5.3 µM | > 25 µM | >4.7
29 | CCN(CCc1c[nH]c2ccccc12)CCC(C)C | > 25 µM | > 25 µM | 
30 | CCCN(CCc1c[nH]c2ccccc12)CCC(C)C | 20 µM | > 25 µM | >1.25
31 | CC(C)CCN(CCc1c[nH]c2ccccc12)Cc1cccs1 | 10.1 µM | > 25 µM | >2.5
32 | CC(C)CCN(CCc1c[nH]c2ccccc12)CC(C)C | 1.1 µM | > 25 µM | >23
33 | CC(C)CCN(CCc1cn(S(=O)(=O)c2ccccc2)c2ccccc12)CCC(C)C | > 25 µM | 15 µM | 
34 | CCN(CC)CCc1c[nH]c2ccccc12 [DIETHYLTRYPTAMINE] | > 100 µM | > 100 µM | 
35 | Nc1ccn([C@@H]2CS[C@H](CO)O2)c(=O)n1 [LAMIVUDINE] | 0.33 µM | 1170 µM | 3557
36 | CN(C)CCc1c[nH]c2ccccc12 [N,N-DIMETHYLTRYPTAMINE] | > 100 µM | > 100 µM | 
